In one assay the test system is CAC membranes. Briefly: Competition binding with [125I-Tyr4]-UAG on CAC membranes. The arrangement: species or system human. An excerpt: The specific binding of [^125I-Tyr^4]-UAG (calculated as difference between binding in the absence, control, and in the presence of UAG) represented about 75% of the control value (P<0.001) and was detected either on fresh (0.25 and 0.26 fmol) or frozen-thawed (0.20 and 0.33 fmol) CAC membranes from two different cell preparations.

Assay [1] deals with CAC. Briefly: Detection of ROS in CAC (DCF-DA assay, FACS). The format is cell-based, human. The following applies: for level of ROS production in AGE-cultured cells: AGE-cultured CAC, FIG. 1C, 1F; for baseline level of ROS production: CAC, compared to untreated cells, FIG. 1B, 1E. The procedure:
First, cell-cycle progression in response to UAG and AG was evaluated. […] To investigate whether this effect relies on inhibition of baseline ROS production, DCF-DA assay was performed. […] H2O2 was used as positive control. AGE-mediated damage signals mainly rely on ROS production (Ref. 29). […] Detection of ROS—DCF-DA (0.5 μM final concentration) was added to CAC in the indicated culture conditions. At the indicated times, the cells were subjected to FACS analysis and processed as previously described (Ref. 22). H2O2 was used as positive control.

The next assay concerns cardiomyocytes. The following applies: Ref. 8; cited from earlier work.
Assay [2] has as its system human microvascular endothelial cells (HMVECs). The following applies: exogenous AG, Ref. 4; cited from earlier work.
In assay [3] the test system is human umbilical vein endothelial cells (HUVECs). The following applies: Ref. 5; cited from earlier work.
Assay [4] deals with CAC. In words: Expansion (S phase) of CAC recovered from treated patients, cultured with IL-3. It counts as in vivo, human. The following applies: cells recovered from treated diabetic patients; FIG. 3C. The procedure:
To confirm their vascular features, the cells recovered from patients and controls were cultured with IL-3; which is able to induce expansion and arterial morphogenesis of CD45^+ cells derived from both peripheral blood and BM (Ref. 28).
Flow Cytometry—To analyze CAC cell-cycle progression, cells recovered from diabetic, healthy subjects, NOD/SCID, ob/ob and wt mice, were cultured in EBM-2 supplemented with IL-3 (10 ng/ml), FACS analysis was performed as previously described (Ref. 20). Cell surface molecules were evaluated by flow cytometry as previously described (Ref. 24). Frequency of marker-positive cells is expressed as mean±standard deviation (SD).

Assay [5] has as its system CAC. Briefly: CAC cell-cycle progression (percentage of cells in S phase, FACS). It counts as cell-based, human. The following applies: cultured CAC; effect still evident after 7 days of culture; FIG. 1A. The procedure:
First, cell-cycle progression in response to UAG and AG was evaluated. […] To investigate whether this effect relies on inhibition of baseline ROS production, DCF-DA assay was performed. […] H2O2 was used as positive control. AGE-mediated damage signals mainly rely on ROS production (Ref. 29). […] Isolation and Culture of CAC from Peripheral Blood Mononuclear Cells—Peripheral-blood mononuclear cells (PB-MNC) isolated by Fycoll Histopaque 1077 (Sigma) were resuspended in 20% FBS 199 Medium and plated on fibronectin-coated dishes (Biocoat, Becton Dickinson Labware) as described by Hill et al. (Ref. 19). Human UAG studies were performed on CAC recovered from normal donors and diabetic patients. The purity of sorted cells was assessed by FACS analysis (Ref. 20). For experiments, the isolated CAC were cultured under 5% CO2 at 37° C. for 4 days on 20 μg/ml fibronectin-coated dishes in EGM-2 medium containing 10% FBS, hydrocortisone, human Fibroblast Growth Factor, Vascular Endothelial Growth Factor, Insulin Growth Factor 1, ascorbic acid, human Epidermal Growth Factor, gentamicin and amphotericin-B (Cambrex, Walkersville, Md., USA) alone or in combination with 1 μM UAG and 1.2 mg/ml AGE. […] Cell surface molecules were evaluated by flow cytometry as previously described (Ref. 24). Frequency of marker-positive cells is expressed as mean±standard deviation (SD).

Another assay has as its system human arteries. The following applies: Ref. 35; cited from earlier work.
Assay [6] relates to CAC. In words: CAC mobilization assay in healthy subjects and diabetic patients. The format is in vivo, human. The following applies: diabetic patients compared to normal subjects, treated for 6 hours; FIG. 3B. The procedure: This observation led to investigate the effect of UAG treatment on BM CAC mobilization. To this end, normal subject and diabetic patients were treated with UAG or saline for 6 hours. After treatment, CAC were recovered from 4 control subjects and 4 diabetic patients, analyzed by FACS analysis and counted. […] Black lines refer to preimmune IgG used as negative control and grey lines refer to surface marker expression. Similar results were obtained when CAC from untreated diabetic patients or untreated or treated healthy subjects were analyzed (data not shown).
All the subjects underwent the following testing session: • UAG (3.0 μg/kg/h iv. as infusion for 12 h from 0 to 12 hours); • isotonic saline (infusion from 0 to 12 hours).
Mobilization assay—CAC recovered from healthy subjects and diabetic patients, treated with UAG or saline for 6 h and 12 h, were evaluated. Total number of MNC was counted by 3 independent investigators. The percentage of CAC was calculated by comparing CAC obtained from diabetic patients and healthy donors, treated for 6 h and 12 h with UAG, AG or saline, to CAC recovered at time 0.

Assay [7] deals with specific binding sites for UAG on CAC membranes. Briefly: saturation binding on CAC membranes.
For assay [8] the target is unchanged. Briefly: radioligand binding, fresh CAC membranes, two cell preparations.
Assay [9] shares this target. In words: saturation binding on CAC membranes, Scatchard analysis.
The target is the same in assay [10]. Briefly: radioligand binding, frozen-thawed CAC membranes, two cell preparations.
The target is the same in assay [11]. In words: radioligand binding to CAC membranes; difference between binding without and with 100 nM unlabelled UAG.

Values joined by “and” are separate entries in the source; they are usually repeats but may differ in a detail not shown here. Equal values may be shown once. *1 amine or outer side, *2 acyl side, *3 side chain or, on linkers, in order; H or OH if unused. Where no end group is shown, it is not given here. [ ]: non-standard residue; d: D form. The star is where a group is joined. 125I‑Tyr = O=C([C@H](Cc1ccc(O[*:3])c([125I])c1)N[*:1])[*:2]; Octanoyl = CCCCCCCC(=O)*; 125I = [125I]*

Here are results for four molecules from patent US20110160121A1, “UNACYLATED GHRELIN AND ANALOGS AS THERAPEUTIC AGENTS FOR VASCULAR REMODELING IN DIABETIC PATIENTS AND TREATMENT OF CARDIOVASCULAR DISEASE” (ALIZE PHARMA SAS, priority 2008, published 2011).

Consider “Ser-Pro-Glu-His-Gln-Arg-Val-Gln (SPEHQRVQ; not fully specified (C-terminus); printed as Ser-Pro-Glu-His-Gln-Arg-Val-Gln; listed as Homo sapiens) [UAG (6-13)]”, for which the “inhibition of binding of [125I-Tyr4]-UAG to CAC membranes” value in the assay on CAC membranes (100 nM competitor, 0.25 nM radioligand, FIG. 5A) is listed as “inhibited”. Moreover, in the assay with CAC [1], the “level of ROS production in AGE-cultured cells” value was “the level of ROS production in AGE-cultured cells was reduced” and the “baseline level of ROS production” value is reported as “reduces the baseline level of ROS production”.

As for “[^125I-Tyr^4]-UAG: radioligand used for binding to CAC membranes (GSS[125I‑Tyr]LSPEHQRVQQRKESKKPPAKLQPR)”, the “specific binding of [125I-Tyr4]-UAG” value in the assay on CAC membranes (difference between binding in the absence and in the presence of 100 nM UAG, P<0.001) is “about 75 % of the control value”; with CAC membranes (fresh CAC membranes, two different cell preparations) it was 0.25 fmol and 0.26 fmol; in the assay with CAC membranes (frozen-thawed CAC membranes, two different cell preparations) it was 0.20 fmol and 0.33 fmol.

Turning to “AG: 28 amino acid peptide with an n-octanoyl modification on the Ser3 residue; endogenous ligand of GHSR (GSS(Octanoyl)FLSPEHQRVQQRKESKKPPAKLQPR) [reference compound]”, the “inhibition of experimentally-induced cell death” value in the assay with cardiomyocytes is recorded as “inhibit experimentally-induced cell death”. Besides, in assay [2], the “cell proliferation, migration, in vitro angiogenesis and ERK2 phosphorylation” value is “significantly increased cell proliferation, migration, in vitro angiogenesis and ERK2 phosphorylation”. The “basal and TNF-alpha-induced chemotactic cytokine production and mononuclear cell adhesion” value in [3] is “inhibit basal and TNF-α-induced chemotactic cytokine production and mononuclear cell adhesion”. In the assay on CAC [1], the “level of ROS production in AGE-cultured cells” value was “no effects could be detected” and the “baseline level of ROS production” value was “A protective effect failed to be detected”. Besides, in the assay on CAC [1] (CAC isolated from type 2 diabetic patients, treated in vitro, FIG. 1D), the “intracellular ROS production in diabetic-recovered cells” value is recorded as “not AG, reduced intracellular ROS production”. Besides, the “cell expansion (cells in S phase) with IL-3” value in the assay with CAC [4] is “not from AG-treated diabetic patients, underwent cell expansion”. The “percentage of cells in S phase” value in the assay with CAC [5] is on record as “not AG, was able to induce a significant increase”. The vasodilator action result in the assay on human arteries was “have vasodilator actions in human arteries”. In addition, the “number of recovered cells (CAC)” value in the assay on CAC [6] is reported as “No statistical differences were detected”.

For GSSY(125I)LSPEHQRVQQRKESKKPPAKLQPR (ends and bridges not checked) [[125I-Tyr4]-UAG], the concentration at maximum specific binding in [7] was found to be 2 nM. The specific binding in assay [8] was 0.25 fmol and 0.26 fmol. In [9], this molecule returned a Bmax (fmol/mg membrane protein) of 10.7 and a Kd of 0.48 nM. The specific binding in assay [10] is 0.2 fmol and 0.33 fmol. This molecule came in with a specific binding (% of control value) in [11] of 75%.
